Experiments:
[1] = system: UO-31; assay: NCI anticancer screening, Renal Cancer UO-31; assay type: cell-based; settings: Homo sapiens; UO-31, 10 μM; read-out: % Growth Inhibition (GI %)
Description: (§1) The compound has been processed according to standard method NCI-60 Human Tumor Cell Lines Screen for organic compound at development therapeutic program (DTP). Requests for access to this national resource can be submitted online at: […]

[2] = system: A549/ATCC; assay: NCI anticancer screening, Non-Small Cell Lung Cancer A549/ATCC; assay type: cell-based; settings: Homo sapiens, read-out: % Growth Inhibition (GI %)
Description: as §1

[3] = system: SF-539; assay: NCI anticancer screening, CNS Cancer SF-539; assay type: cell-based; settings: Homo sapiens; SF-539, 10 μM; read-out: % Growth Inhibition (GI %)
Description: as §1

[4] = system: OVCAR-5; assay: NCI anticancer screening, Ovarian Cancer OVCAR-5; assay type: cell-based; settings: Homo sapiens; OVCAR-5, 10 μM; read-out: % Growth Inhibition (GI %)
Description: as §1

[5] = system: K-562; assay: NCI anticancer screening, Leukemia K-562; assay type: cell-based; settings: Homo sapiens, K562; K-562, 10 μM; read-out: % Growth Inhibition (GI %)
Description: as §1

[6] = system: HT29; assay: NCI anticancer screening, Colon Cancer HT29; assay type: cell-based; settings: Homo sapiens, HT-29; HT29, 10 μM; read-out: % Growth Inhibition (GI %)
Description: as §1

[7] = system: MDA-MB-468; assay: NCI anticancer screening, Breast Cancer MDA-MB-468; assay type: cell-based; settings: Homo sapiens, read-out: % Growth Inhibition (GI %)
Description: as §1

[8] = system: MOLT-4; assay: NCI anticancer screening, Leukemia MOLT-4; assay type: cell-based; settings: Homo sapiens; MOLT-4, 10 μM; read-out: % Growth Inhibition (GI %)
Description: as §1

[9] = system: OVCAR-4; assay: NCI anticancer screening, Ovarian Cancer OVCAR-4; assay type: cell-based; settings: Homo sapiens; OVCAR-4, 10 μM; read-out: % Growth Inhibition (GI %)
Description: as §1

[10] = system: SK-MEL-28; assay: NCI anticancer screening, Melanoma SK-MEL-28; assay type: cell-based; settings: Homo sapiens; SK-MEL-28, 10 μM; read-out: % Growth Inhibition (GI %)
Description: as §1

[11] = system: NCI-H460; assay: NCI anticancer screening, Non-Small Cell Lung Cancer NCI-H460; assay type: cell-based; settings: Homo sapiens; NCI-H460, 10 μM; read-out: % Growth Inhibition (GI %)
Description: as §1

[12] = system: BT-549; assay: NCI anticancer screening, Breast Cancer BT-549; assay type: cell-based; settings: Homo sapiens; BT-549, 10 μM; read-out: % Growth Inhibition (GI %)
Description: as §1

[13] = system: LOX IMVI; assay: NCI anticancer screening, Melanoma LOX IMVI; assay type: cell-based; settings: Homo sapiens, read-out: % Growth Inhibition (GI %)
Description: as §1

[14] = system: CAKI-1; assay: NCI anticancer screening, Renal Cancer CAKI-1; assay type: cell-based; settings: Homo sapiens; CAKI-1, 10 μM; read-out: % Growth Inhibition (GI %)
Description: as §1

[15] = system: UACC-257; assay: NCI anticancer screening, Melanoma UACC-257; assay type: cell-based; settings: Homo sapiens; UACC-257, 10 μM; read-out: % Growth Inhibition (GI %)
Description: as §1

[16] = system: SR; assay: NCI anticancer screening, Leukemia SR; assay type: cell-based; settings: Homo sapiens, read-out: % Growth Inhibition (GI %)
Description: as §1

[17] = system: NCI-H23; assay: NCI anticancer screening, Non-Small Cell Lung Cancer NCI-H23; assay type: cell-based; settings: Homo sapiens; NCI-H23, 10 μM; read-out: % Growth Inhibition (GI %)
Description: as §1

[18] = system: UACC-62; assay: NCI anticancer screening, Melanoma UACC-62; assay type: cell-based; settings: Homo sapiens; UACC-62, 10 μM; read-out: % Growth Inhibition (GI %)
Description: as §1

[19] = system: RPMI-8226; assay: NCI anticancer screening, Leukemia RPMI-8226; assay type: cell-based; settings: Homo sapiens; RPMI-8226, 10 μM; read-out: % Growth Inhibition (GI %)
Description: as §1

[20] = system: T-47D; assay: NCI anticancer screening, Breast Cancer T-47D; assay type: cell-based; settings: Homo sapiens, T47D, read-out: % Growth Inhibition (GI %)
Description: as §1

[21] = system: ACHN; assay: NCI anticancer screening, Renal Cancer ACHN; assay type: cell-based; settings: Homo sapiens, read-out: % Growth Inhibition (GI %)
Description: as §1

[22] = system: HS 578T; assay: NCI anticancer screening, Breast Cancer HS 578T; assay type: cell-based; settings: Homo sapiens, read-out: % Growth Inhibition (GI %)
Description: as §1

[23] = system: NCI-H322M; assay: NCI anticancer screening, Non-Small Cell Lung Cancer NCI-H322M; assay type: cell-based; settings: Homo sapiens, read-out: % Growth Inhibition (GI %)
Description: as §1

[24] = system: NCI-H522; assay: NCI anticancer screening, Non-Small Cell Lung Cancer NCI-H522; assay type: cell-based; settings: Homo sapiens; NCI-H522, 10 μM; read-out: % Growth Inhibition (GI %)
Description: as §1

[25] = system: M14; assay: NCI anticancer screening, Melanoma M14; assay type: cell-based; settings: Homo sapiens; M14, 10 μM; read-out: % Growth Inhibition (GI %)
Description: as §1

[26] = system: SK-MEL-2; assay: NCI anticancer screening, Melanoma SK-MEL-2; assay type: cell-based; settings: Homo sapiens; SK-MEL-2, 10 μM; read-out: % Growth Inhibition (GI %)
Description: as §1

[27] = system: MCF7; assay: NCI anticancer screening, Breast Cancer MCF7; assay type: cell-based; settings: Homo sapiens; MCF7, 10 μM; read-out: % Growth Inhibition (GI %)
Description: as §1

[28] = system: IGROV1; assay: NCI anticancer screening, Ovarian Cancer IGROV1; assay type: cell-based; settings: Homo sapiens, IGROV-1; IGROV1, 10 μM; read-out: % Growth Inhibition (GI %)
Description: as §1

[29] = system: HCC-2998; assay: NCI anticancer screening, Colon Cancer HCC-2998; assay type: cell-based; settings: Homo sapiens; HCC-2998, 10 μM; read-out: % Growth Inhibition (GI %)
Description: as §1

[30] = MTT cytotoxicity to normal human lung fibroblast Wi-38 cell line; assay type: cell-based; settings: Wi-38 normal lung fibroblast cells, mean ± SEM, read-out: percentage of Wi-38 viability
Description: Normal human lung fibroblast Wi-38 cell line was used to detect cytotoxicity of the studied compounds (Table S8). Wi-38 cell line was cultured in DMEM medium-contained 10% fetal bovine serum (FBS), seeded as 5x10^3 cells per well in 96-well cell culture plate and incubated at 37 °C in 5% CO2 incubator. After 24 h for cell attachment, serial concentrations of the synthetic compounds were incubated with Wi-38 cells for 72 h. Cell viability was assayed by MTT method (Mosmann, 1983). Twenty microliters of 5 mg/ml MTT (Sigma, USA) was added to each well and the plate was incubated at 37 °C for 3 h. Then MTT solution was removed, 100 µl DMSO was added and the absorbance of each well was measured with a microplate reader (BMG LabTech, Germany) at 570 nm.

[31] = system: OVCAR-3; assay: NCI anticancer screening, Ovarian Cancer OVCAR-3; assay type: cell-based; settings: Homo sapiens; OVCAR-3, 10 μM; read-out: % Growth Inhibition (GI %)
Description: as §1

[32] = system: HCT-15; assay: NCI anticancer screening, Colon Cancer HCT-15; assay type: cell-based; settings: Homo sapiens; HCT-15, 10 μM; read-out: % Growth Inhibition (GI %)
Description: as §1

[33] = system: MALME-3M; assay: NCI anticancer screening, Melanoma MALME-3M; assay type: cell-based; settings: Homo sapiens, read-out: % Growth Inhibition (GI %)
Description: as §1

## O=C(c1nc2ccccc2[nH]1)[C@H]1[C@H](c2ccccc2O)C2CSCN2[C@]12C(=O)Nc1ccccc12 (stereo partly drawn) [Compound 6j, (3S,6′R)-6'-(1H-Benzo [d]imidazole-2-carbonyl)-7'-(2-hydroxyphenyl)-3′,6′,7′,7a′-tetrahydro-1′H-spiro [indoline-3.5′-pyrrolo [1,2-c]thiazol]-2-one]
[1]
  inhibition at 10 µM: 73.9%
[2]
  inhibition at 10 µM: 98.7%
[3]
  inhibition at 10 µM: 98.5%
[4]
  inhibition at 10 µM: 102%
[5]
  inhibition at 10 µM: 96.4%
[6]
  inhibition at 10 µM: 99.3%
[7]
  inhibition at 10 µM: 102%
[8]
  inhibition at 10 µM: 89.5%
[9]
  inhibition at 10 µM: 86.5%
[10]
  inhibition at 10 µM: 99%
[11]
  inhibition at 10 µM: 97.4%
[12]
  inhibition at 10 µM: 93.6%
[13]
  inhibition at 10 µM: 89.2%
[14]
  inhibition at 10 µM: 84%
[15]
  inhibition at 10 µM: 95.6%
[16]
  inhibition at 10 µM: 94%
[17]
  inhibition at 10 µM: 96.5%
[18]
  inhibition at 10 µM: 77.3%
[19]
  inhibition at 10 µM: 104%
[20]
  inhibition at 10 µM: 80.9%
[21]
  inhibition at 10 µM: 92.2%
other
  melting point: 186 to 188 °C
[22]
  inhibition at 10 µM: 85%
[23]
  inhibition at 10 µM: 99.8%
[24]
  inhibition at 10 µM: 87.2%
[25]
  inhibition at 10 µM: 95.1%
[26]
  inhibition at 10 µM: 104%
[27]
  inhibition at 10 µM: 92.4%
[28]
  inhibition at 10 µM: 92.1%
[29]
  inhibition at 10 µM: 103%
[30]
  viability at 72 h, 5 µM: 40 ± 2.38%
[31]
  inhibition at 10 µM: 96.3%
[32]
  inhibition at 10 µM: 101%
[33]
  inhibition at 10 µM: 105%

## O=C(c1nc2ccccc2[nH]1)[C@H]1[C@H](c2ccc(Cl)cc2)C2CSCN2[C@]12C(=O)Nc1ccccc12 (stereo partly drawn) [Compound 6b, (3S,6′R)-6'-(1H-Benzo [d]imidazole-2-carbonyl)-7'-(4-chlorophenyl)-3′,6′,7′,7a′-tetrahydro-1′H-spiro [indoline-3.5′-pyrrolo [1,2-c]thiazol]-2-one]
[1]
  inhibition at 10 µM: 49%
[2]
  inhibition at 10 µM: 81.4%
[3]
  inhibition at 10 µM: 84.1%
[4]
  inhibition at 10 µM: 92.5%
[5]
  inhibition at 10 µM: 82.3%
[6]
  inhibition at 10 µM: 80.9%
[7]
  inhibition at 10 µM: 89.4%
[8]
  inhibition at 10 µM: 68.9%
[9]
  inhibition at 10 µM: 69.5%
[10]
  inhibition at 10 µM: 92.2%
[11]
  inhibition at 10 µM: 74.3%
[12]
  inhibition at 10 µM: 97%
[13]
  inhibition at 10 µM: 76.6%
[14]
  inhibition at 10 µM: 68.3%
[15]
  inhibition at 10 µM: 95.2%
[16]
  inhibition at 10 µM: 65.9%
[17]
  inhibition at 10 µM: 81.4%
[18]
  inhibition at 10 µM: 73.9%
[19]
  inhibition at 10 µM: 63.2%
[20]
  inhibition at 10 µM: 59.9%
[21]
  inhibition at 10 µM: 78.2%
other
  melting point: 210 to 212 °C
[22]
  inhibition at 10 µM: 72.1%
[23]
  inhibition at 10 µM: 93.5%
[24]
  inhibition at 10 µM: 87.9%
[25]
  inhibition at 10 µM: 79.4%
[26]
  inhibition at 10 µM: 110%
[27]
  inhibition at 10 µM: 74.7%
[28]
  inhibition at 10 µM: 68.9%
[29]
  inhibition at 10 µM: 92.1%
[30]
  viability at 72 h, 5 µM: 49.6 ± 1.19%
[31]
  inhibition at 10 µM: 86.4%
[32]
  inhibition at 10 µM: 76.6%
[33]
  inhibition at 10 µM: 89.7%

## COc1cc([C@@H]2C3CSCN3[C@]3(C(=O)Nc4ccccc43)[C@H]2C(=O)c2nc3ccccc3[nH]2)cc(OC)c1OC (stereo partly drawn) [Compound 6i, (3S,6′R)-6'-(1H-Benzo [d]imidazole-2-carbonyl)-7'-(3,4,5-trimethoxyphenyl)-3′,6′,7′,7a′-tetrahydro-1′H-spiro [indoline-3.5′-pyrrolo [1,2-c]thiazol]-2-one]
[1]
  inhibition at 10 µM: 86.6%
[2]
  inhibition at 10 µM: 89.4%
[3]
  inhibition at 10 µM: 99.6%
[4]
  inhibition at 10 µM: 94.3%
[5]
  inhibition at 10 µM: 94.2%
[6]
  inhibition at 10 µM: 107%
[7]
  inhibition at 10 µM: 99.6%
[8]
  inhibition at 10 µM: 97.4%
[9]
  inhibition at 10 µM: 100%
[10]
  inhibition at 10 µM: 107%
[11]
  inhibition at 10 µM: 105%
[12]
  inhibition at 10 µM: 93.7%
[13]
  inhibition at 10 µM: 101%
[14]
  inhibition at 10 µM: 92.6%
[15]
  inhibition at 10 µM: 87.8%
[16]
  inhibition at 10 µM: 91.8%
[17]
  inhibition at 10 µM: 104%
[18]
  inhibition at 10 µM: 87.4%
[19]
  inhibition at 10 µM: 108%
[20]
  inhibition at 10 µM: 102%
[21]
  inhibition at 10 µM: 107%
other
  melting point: 245 to 247 °C
[22]
  inhibition at 10 µM: 102%
[23]
  inhibition at 10 µM: 93.1%
[24]
  inhibition at 10 µM: 88.3%
[25]
  inhibition at 10 µM: 107%
[26]
  inhibition at 10 µM: 115%
[27]
  inhibition at 10 µM: 99.9%
[28]
  inhibition at 10 µM: 95.8%
[29]
  inhibition at 10 µM: 108%
[30]
  viability at 72 h, 5 µM: 43.3 ± 0.917%
[31]
  inhibition at 10 µM: 109%
[32]
  inhibition at 10 µM: 105%
[33]
  inhibition at 10 µM: 99.8%

Source: PMC11033320, “Activation of p53 signaling and regression of breast and prostate carcinoma cells by spirooxindole-benzimidazole small molecules” (Frontiers in Pharmacology, 2024)
